Three compounds from US20030162803A1, “Anhydrovinblastine for the treatment of cancer” (priority 1997, published 2003) can be followed below.

Where a name gives a salt, the structure may show the parent alone. Read-outs that look alike come from different tables or passages of the source. A value given as a limit tells only on which side of the number the result lay.

The test system of data set [1] is P388 lymphocytic leukaemia. Description: MTT cytotoxicity assay, P388. To be noted: for IC50: read-out: Drug Ic50.
Protocol: Standard dose response cytotoxicity assays (R. Mosmass, J. Immunol. Meth., 65:55-64, 1983) were utilized to determine the IC50 (drug concentration required to induce 50% inhibition of tumor cell growth) for vincristine, Navelbine™ and AHVB.
A wide range of drug concentrations were exposed to tumor cells growing at log phase in 96-well microtitre plates. Cell concentrations depended on the cell line as well as the length of time to be cultured. Typically, P388 cells were plated at a concentration of 30,000, 2,000 and 750 cells per well for studies lasting 1, 3 and 7 days, respectively. MCF7 cells were plated at a concentration of 7,000 and 1,500 cells per well for studies lasting 3 and 7 days, respectively. H460 cells were plated at a concentration of 2,500 and 1,000 cells per well for studies lasting 3 and 7 days, respectively. K562 cells were plated at a concentration of 1,500 and 10,000 cells per well for studies lasting 1 and 3 days, respectively. LS180 cells were plated at a concentration of 5,000 and 20,00 cells per well for studies lasting 3 and 7 days, respectively. After plating all cell lines were incubated (CO2 incubator at 37° C., 5% CO2) for 24 hours prior to addition of the cytotoxic agent (See Table 1).
(§1) Subsequently the plates were incubated for the indicated time period. At specified times, cells were washed and subsequently exposed to the dye inclusion marker MTT (3-(4,5-dimethylthiazol-2-yl)-2,5-diphenyl tetrazolium), which accumulated into viable cells. MTT was added to the cells at a final concentration of 50 μg per well. After a 4 hour incubation, the cells were washed free of media and unreacted MTT, prior to addition of DMSO which was required to solubilize the insoluble formazan precipitate that formed in viable cells. After the sample was mixed through repeated pipetting, the coloured product was measured using a plate reader operating at 570 nm. The absorbance values obtained for cells cultured in the absence of drug was assumed to represent 100% viability.
A cytotoxicity curve was generated to estimate the IC50 of vincristine, Navelbine™ and AHVB in the murine P388 cell line (see FIG. 5). In this study, P388 cells derived from an ascitic tumor grown in BDF1 were first separated from red cells employing Ficoll-Paque. Isolated white cells were washed twice then placed in serum containing tissue culture media (1×10^5 cells per ml of RPMI 1640 supplemented with L-glutamine, penicillin, streptomycin and 10% fetal bovine serum) and cultured for 2 hours. All non-adherent cells were collected and that cell population was defined as P388 cells and used for cytotoxicity assays 24 hours later.
Data set [2] concerns H460 human non-small cell lung carcinoma. Description: MTT cytotoxicity assay, H460. It is filed as cell-based. To be noted: read-out: Drug Ic50.
Protocol: (§2) Cytotoxicity experiments on AHVB were performed as direct comparisons with vincristine and Navelbine™ in order to assess its inherent antineoplastic profile against a variety of tumor cell types relative to other relevant vinca alkaloids. The cytotoxicity of AHVB was investigated in vitro against a panel of tumor cell lines of varying lineage in order to determine the specificity of its antitumor activity with respect to cell type.
(§3) Standard dose response cytotoxicity assays (R. Mosmass, J. Immunol. Meth., 65:55-64, 1983) were utilized to determine the IC50 (drug concentration required to induce 50% inhibition of tumor cell growth) for vincristine, Navelbine™ and AHVB. The indicated cell lines were obtained from either the ATCC or NCI tumor repository and were cultured in tissue culture media by standard techniques well known to those skilled in the art, prior to dilution to a defined cell concentration required for the studies in 96 well plates.
(§4) A wide range of drug concentrations were exposed to tumor cells growing at log phase in 96-well microtitre plates. Cell concentrations depended on the cell line as well as the length of time to be cultured. […] MCF7 cells were plated at a concentration of 7,000 and 1,500 cells per well for studies lasting 3 and 7 days, respectively. H460 cells were plated at a concentration of 2,500 and 1,000 cells per well for studies lasting 3 and 7 days, respectively. K562 cells were plated at a concentration of 1,500 and 10,000 cells per well for studies lasting 1 and 3 days, respectively. LS180 cells were plated at a concentration of 5,000 and 20,00 cells per well for studies lasting 3 and 7 days, respectively.
as §1
The test system of data set [3] is MCF7 human breast carcinoma. Description: MTT cytotoxicity assay, MCF7. To be noted: read-out: Drug Ic50. Format: cell-based.
Protocol: as §2, §3, §4, §1
In data set [4] the test system is LS180 human colon carcinoma. Description: MTT cytotoxicity assay, LS180. To be noted: read-out: Drug Ic50. It is filed as cell-based.
Protocol: as §2, §3, §4, §1
Data set [5] relates to Nb2-U17 lymphoma transplants. Description: Rat U17 lymphoma model (Nb2-U17 tumor transplants). It is filed as in vivo, Nb rats. To be noted: for anti-tumor potency compared: 50% of individual maximum tolerated doses, FIG. 3. The text has this: The U17 cell line was originally derived from a transplantable malignant lymphoma that arose spontaneously in male Noble rats (British Columbia Cancer Research Centre Joint Animal Breeding Facility with parents obtained from the National Institutes of Health, Bethesda, Md.). The cell line is prolactin dependent and can readily be cultured in vitro. U17 derived solid tumors are generated by subcutaneous injection (via the trocar method) of a small (2 mm^2) piece of tumor tissue obtained from male Noble rat. Tumor tissue used for the implants arose two weeks after injection of 5×10^6 U17 cells (from culture) subcutaneously in the nape of the neck. For assessing the anti-tumor activity of AHVB, tumor bearing animals (2-4 gm tumors) were given a single treatment of drug and tumor size was measured as a function of time following treatment. The anti-tumor activity was assessed at a series of different doses in order to determine the maximum therapeutic dose of AHVB. Comparative studies between vincristine, vinblastine and AHVB were performed. For these studies anti-tumor activity was determined at the maximum therapeutic dose of each drug.
Cultures of the non-metastatic, pre-T Nb2 lymphoma line originally developed at The University of British Columbia and designated Nb2-U17 (Anticancer Research 14:2485-2492, 1994), and are available from the British Columbia Cancer Research Centre. Cells from exponentially growing Nb2-U17 suspension cultures were injected subcutaneously into methoxyflurane-anaesthetised, mature male Nb rats (5 rats; 310-380 grams; 5×10^6 cells/rat in 1 ml of culture medium) at the nape of the neck using a 1.5″ 20-gauge needle. […]
The oncolytic effects of each of the three drugs were assessed at a subacutely toxic dose, determined for each drug in preliminary studies using non-tumor-bearing, mature male Nb rats, i.e. 3.0, 2.0 and 0.7 mg/kg for AHVB, Navelbine™ and vincristine, respectively as illustrated in FIG. 2. In addition, each drug was assessed at 50% and 25% of its subacutely toxic dose. […]

Data set [6] concerns K562 human erythroleukaemia. Description: MTT cytotoxicity assay, K562. Format: cell-based. To be noted: read-out: Drug Ic50.
Protocol: as §2, §3, §4, §1
The nature of data set [7]: Range-finding acute (14 day) single dose toxicity in healthy male Nb rats. It is filed as in vivo. To be noted: single intraperitoneal injection; for subacutely toxic dosage (highest dose which allowed survival of all animals in a group): 14 day. How it is done: Range-finding acute (14 day), single dose toxicity studies were performed in healthy male Nb rats in order to determine the maximum tolerated dose of vincristine sulfate, Navelbine T and AHVB when administered as a single, intraperitoneal injection in these rodents (see Table 2).
To this end, healthy non-tumor bearing male Nb rats (weight range 333-399 grams) were divided in groups of 3 animals. Each group was used to test one drug at one dosage. The volumes within which the drugs were administered depended on the concentration of the drug solution (in saline) and the weight of the animals, and ranged from 0.1-1.0 ml. Saline was used as a control. The highest dose of each drug which allowed survival of all animals in a group (3 out of 3) was taken as the subacutely toxic dosage for the drug, i.e. 0.7 mg/kg for vincristine, 2.0 mg/kg for Navelbine™ and 3.0 mg/kg for AHVB.
The health of the animals was assessed by daily weight measurements in addition to behavioural indications of stress. Animals continued to be monitored throughout the complete 14 day study period. Animals were euthanized in the event of signs of severe stress or weight loss in excess of 20%. All animals were necropsied at the end of the study period or at the time of premature euthanasia.

Setting [8] is: Homo sapiens, NCI-H460, 72 h, H460, exposure time 3 days.
Setting [9] is: Homo sapiens, NCI-H460, 168 h, H460, exposure time 7 days.
Setting [10] is: Homo sapiens, 72 h, MCF7, exposure time 3 days.
Where [11] appears, read: Homo sapiens, 168 h, MCF7, exposure time 7 days.
Setting [12] is: Homo sapiens, 72 h, LS180, exposure time 3 days.
The mark [13] stands for this setting: Homo sapiens, 168 h, LS180, exposure time 7 days.
Setting [14] is: Homo sapiens, 24 h, K562, exposure time 1 day.
Setting [15] is: Homo sapiens, 72 h, K562, exposure time 3 days.

For `CCC1=C[C@H]2CN(CCc3c([nH]c4ccccc34)[C@@](C(=O)OC)(c3cc4c(cc3OC)N(C)[C@H]3[C@@](O)(C(=O)OC)[C@H](OC(C)=O)[C@]5(CC)C=CCN6CC[C@]43[C@@H]65)C2)C1` [AHVB, 3′,4′-anhydrovinblastine], the “fold less active on per molar basis than vincristine and Navelbine” value in data set [1] (in vitro tests, Table I and FIG. 5) lay in the range of 10 to 15 fold. The IC50 in data set [1] (P388, exposure time 1 day) is 140 ± 53 nM; in data set [1] (P388, exposure time 3 days), 15 ± 8.7 nM; in data set [1] (P388, exposure time 7 days), 20 nM; in data set [2] (H460, exposure time 3 days) it was 10 nM; in data set [2] (H460, exposure time 7 days), 5 nM; in data set [3] (MCF7, exposure time 3 days) it was more than 2500 nM. Besides, the half-maximal inhibitory concentration (IC50) in data set [3] (MCF7, exposure time 7 days) is 31.3 ± 12.4 nM; in data set [4] (LS180, exposure time 3 days), more than 50 nM; in data set [4] (LS180, exposure time 7 days), 17.5 nM; in data set [6] (K562, exposure time 1 day), more than 50 nM; in data set [6] (K562, exposure time 3 days), 18.8 ± 8.8 nM. Further, the anti-tumor potency compared entry in data set [5] was “less potent than vincristine”. Further, the “Mortality (surviving rats/injected rats)” value in data set [7] (4.4 mg/kg) and in data set [7] (10 mg/kg) was 0 surviving rats/injected rats in each case. The “subacutely toxic dosage (highest dose which allowed survival of all animals in a group)” value (“subacutely toxic dosage” below) in data set [7] was found to be 3.0 mg/kg.
For the compound `CCC1=C[C@@H]2CN(C1)Cc1c([nH]c3ccccc13)[C@@](C(=O)OC)(c1cc3c(cc1OC)N(C)[C@H]1[C@@](O)(C(=O)OC)[C@H](OC(C)=O)[C@]4(CC)C=CCN5CC[C@]31[C@@H]54)C2` [Navelbine, 3′,4′-didehydro-4′-deoxy-C′-norvincaleukoblastine-di-L-tartrate], the IC50 is 20 nM in data set [1] (Mus musculus, P388, 24 h); 0.7 ± 0.3 nM in data set [1] (Mus musculus, P388, 72 h); 2.5 nM in data set [1] (Mus musculus, P388, 168 h); 0.3 nM in data set [2] (setting [8]); more than 0.5 nM in data set [2] (setting [9]); more than 2500 nM in data set [3] (setting [10]). Moreover, the IC50 in data set [3] (setting [11]) is 2.6 ± 1.6 nM; in data set [4] (setting [12]) it was more than 50 nM; in data set [4] (setting [13]) it was 0.5 nM; in data set [6] (setting [14]) it was more than 50 nM; in data set [6] (setting [15]) it was 2.5 ± 2.2 nM. In data set [5], the anti-tumor potency compared entry is “less potent than AHVB”. Also, the “Mortality (surviving rats/injected rats)” value in data set [7] (5 mg/kg) and in data set [7] (10 mg/kg) was 0 surviving rats/injected rats in each case. The “subacutely toxic dosage” value in data set [7] was 2.0 mg/kg.
For `CC[C@]1(O)C[C@H]2CN(CCc3c([nH]c4ccccc34)[C@@](C(=O)OC)(c3cc4c(cc3OC)N(C=O)[C@H]3[C@@](O)(C(=O)OC)[C@H](OC(C)=O)[C@]5(CC)C=CCN6CC[C@]43[C@@H]65)C2)C1` [Vincristine, Sulfate of 22-oxovincaleukoblastine], the IC50 was 11 ± 3.6 nM in data set [1] (Mus musculus, P388, 24 h); 1 ± 0.3 nM in data set [1] (Mus musculus, P388, 72 h); 2 nM in data set [1] (Mus musculus, P388, 168 h); 3.5 nM in data set [2] (setting [8]); 2.5 nM in data set [2] (setting [9]); more than 2500 nM in data set [3] (setting [10]). Also, the IC50 in data set [3] (setting [11]) is 2.6 ± 1.6 nM; in data set [4] (setting [12]), more than 50 nM; in data set [4] (setting [13]), 1.5 nM; in data set [6] (setting [14]), more than 50 nM; in data set [6] (setting [15]) it was 1.5 ± 0.4 nM. Also, in data set [5] (single intraperitoneal subacutely toxic dose, FIG. 2), the recurrence of tumors result is “not observed”. The “Mortality (surviving rats/injected rats)” value in data set [7] (1 mg/kg) is 0 surviving rats/injected rats. Besides, the “subacutely toxic dosage” value in data set [7] was determined as 0.7 mg/kg.
